Test results taken from US8557844B2, “Substrate reduction therapy” (The Chancellor, Masters and Scholars of the University of …, priority 2007, dated 2013).
Entries after “also recorded” stand apart in the source; their conditions may differ.

Tests used:
[1] = system: NPC1 cells; settings: depletion of stored GSLs with NB-DGJ; cited from earlier work
[2] = system: NPC1 null (CT43) CHO cells; assay: BODIPY-LacCer pulse/chase endocytic transport in NPC1 null CHO cells; type: cell-based; settings: 50 μM NB-DGJ, 5 days, 45 min pulse, 1 h chase, FIG. 3B
Excerpt: (§1) It has been shown that Niemann-Pick C1 cells (NPC1 null CHO cells) and normal cells treated with amphiphiles to induce an NPC1 phenotype, in addition to free cholesterol storage, have glycosphingolipid (GSL) storage (FIG. 3A) and abnormalities in endocytic transport (FIG. 3B) including defective early to late endosomal transport and late endosomal to Golgi transport (J Biol Chem 2004; 279(25):26167-75). NPC1 cells have a 2-fold increase in total GSLs (HPLC quantified) compared to controls (FIG. 3A). […] This correction in GSL levels is associated with a correction in endocytic transport defects (J Biol Chem 2004; 279(25):26167-75). Fluorescently labelled lactosylceramide (BODIPY-LacCer), a GSL normally transported through the endocytic system to the Golgi (FIG. 3Bi), is misdirected to the LE/Lys system in untreated NPC1 cells (FIG. 3Bii), indicative of GSL storage (J Biol Chem 2004; 279(25):26167-75; J Biol Chem 2003; 278(23):20961-70; Am J Hum Genet 2001; 68(6):1361-72).

[3] = cited from earlier work
[4] = system: NPC1 null (CT43) CHO cells; assay: Total GSL level (HPLC) in NPC1 null CHO cells; type: cell-based; settings: 50 μM NB-DGJ, 5 days, FIG. 3A
Excerpt: as §1

[5] = cited from earlier work; remark: listed apart in the source
[6] = system: DHCR7−/− mouse embryonic fibroblasts; assay: Nile red staining of ER neutral lipids in DHCR7−/− MEFs; type: cell-based; set-up: dose or concentration left out as unconfirmed; settings: 5 days
Procedure: DHCR7−/− mouse embryonic fibroblasts were grown under the conditions indicated in FIG. 9 (FCS=foetal calf serum, LPDS=lipoprotein deficient serum) for 5 days prior to staining of neutral lipids with Nile red. Under wild-type conditions (growth in FCS) Nile red stains the endoplasmic reticulum (ER) as expected. Inducing DHCR7−/− cells into a Smith-Lemli-Opitz phenotype by growth in LPDS leads to a depletion in ER neutral lipids and an elevation in punctate staining indicative of a block in transport to the ER. […] N=2.

[7] = system: total ganglioside and GM1 content in cerebrum-brainstem; settings: cited from earlier work
[8] = system: GSL biosynthesis; settings: cited from earlier work
[9] = system: SLOS (DHCR7−/−) MEFs; type: cell-based, murine; settings: 50 μM NB-DGJ, 5 days, medium with LPDS

**Q.** What does the source list for `CCCCN1C[C@H](O)[C@@H](O)[C@@H](O)[C@H]1CO` [NB-DGJ, N-butyldeoxygalactonojirimycin]?
**A.** HRP uptake [1]: correction in HRP uptake; BODIPY-LacCer endocytic transport [2]: correction in abnormal BODIPY-LacCer endocytic transport; also recorded: correction in BODIPY-LacCer transport to the Golgi; neurological side effects ([3]; adult mice): not to cause neurological side effects; CNS penetration ([3]; mouse, in vivo): penetrate the CNS; effects on behaviour or CNS development ([3]; mouse, in vivo): without significant effects on behaviour or CNS development; GSL storage [4]: reduction in GSL storage; tolerability ([5]; mouse models of GSL storage diseases): very well tolerated; side effect activities relative to NB-DNJ ([5]; mouse, in vivo): lacks certain side effect activities associated with NB-DNJ; ER neutral lipid levels (Nile red) [6]: restoration of normal levels of neutral lipids at the ER; total ganglioside and GM1 content [7]: marked reduction; inhibition of GSL biosynthesis relative to NB-DNJ [8]: comparably to NB-DNJ; endogenous ganglioside GM1 / GSL trafficking from LE/Lys to Golgi [9]: corrected altered endogenous ganglioside GM1 trafficking
